These results are taken from patent US20150010474A1, “Compounds And Methods For Selective Imaging And/Or Ablation” (Auckland Uniservices Limited, priority 2011, published 2015).

Series [1] has as its system HCT116 cells overexpressing the nitroreductase NfsA from E. coli. Nature of the series: Inhibition of cell proliferation, low cell density IC50 assay. Particulars: for IC50: Homo sapiens, HCT-116, 4 hour drug exposure, washing and regrowth for 5 days; for WT:NfsA: WT IC50/NfsA IC50. It counts as cell-based, human. On the procedure: (§1) IC50 values were determined as the concentration of prodrug required to inhibit cell growth by 50% of untreated controls following 4 hour drug exposure, with washing and regrowth for 5 days. WT:NfsA ratios were determined as the WT IC50/NfsA IC50.

Series [2] deals with HCT116 wild type (WT) cancer cells. Described as above. It counts as cell-based. The following applies: Homo sapiens, HCT-116; 4 hour drug exposure, washing and regrowth for 5 days. How it is done: as §1
The next series deals with T1, NfsA (E.c) (Escherichia coli, UniProt P17117).
T1 construct: made in house
T1 sequence (P17117 whole entry): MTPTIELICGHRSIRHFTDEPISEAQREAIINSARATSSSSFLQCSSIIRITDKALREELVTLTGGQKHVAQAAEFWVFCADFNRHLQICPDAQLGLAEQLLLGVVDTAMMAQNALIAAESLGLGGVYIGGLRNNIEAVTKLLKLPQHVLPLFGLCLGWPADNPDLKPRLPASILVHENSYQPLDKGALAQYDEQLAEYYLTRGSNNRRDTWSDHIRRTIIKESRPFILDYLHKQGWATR
Nature of the series: Initial rate of metabolism by purified recombinant bacterial nitroreductase (NADPH consumption, UV/Vis). It counts as biochemical. Particulars: compound 500 μM, NADPH 200 μM, 10 mM Tris-Cl pH 7.0; μmol NADPH consumed per mg enzyme per minute. On the procedure: (§2) The relative initial rates of reductive metabolism of the nitro moiety of test compounds by bacterial nitroreductase's can be measured experimentally by incubating the test compound at near-saturating concentration (determined empirically) with the purified recombinant bacterial nitroreductase enzymes in the presence of NADPH co-factor. UV/Vis spectroscopy is used to measure consumption of the co-factor, indicating metabolism of the test compound by the nitroreductase.
(§3) Compounds 67, 93 and 97 (500 μM) were added to NADPH (200 μM) in 10 mM Tris-Cl pH 7.0. Reactions were initiated by enzyme addition (between 5 and 20 μg per reaction). Rates represent μmol of NADPH consumed per mg enzyme added per minute.

The target of a further series is T2, NfrA (B.s) (Bacillus subtilis, UniProt P39605).
T2 construct: made in house
T2 sequence (P39605 whole entry): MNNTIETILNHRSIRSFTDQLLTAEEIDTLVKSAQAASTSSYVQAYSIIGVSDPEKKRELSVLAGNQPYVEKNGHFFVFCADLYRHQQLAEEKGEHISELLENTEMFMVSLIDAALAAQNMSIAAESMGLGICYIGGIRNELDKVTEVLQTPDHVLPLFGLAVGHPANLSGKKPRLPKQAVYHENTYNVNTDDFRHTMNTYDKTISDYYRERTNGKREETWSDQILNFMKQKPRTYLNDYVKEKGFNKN
Described as above. It counts as biochemical. Particulars: compound 500 μM, NADPH 200 μM, 10 mM Tris-Cl pH 7.0; μmol NADPH consumed per mg enzyme per minute. On the procedure:
as §2, §3

The next series addresses T3, NfsB (E.c) (Escherichia coli, UniProt P38489).
T3 construct: made in house
The description is as above. It counts as biochemical. Particulars: compound 500 μM, NADPH 200 μM, 10 mM Tris-Cl pH 7.0; μmol NADPH consumed per mg enzyme per minute. How it is done: as §2, §3

In a further series the target is T4, YcnD (B.s) (Bacillus subtilis, UniProt P94424).
T4 construct: made in house
T4 sequence (P94424 whole entry): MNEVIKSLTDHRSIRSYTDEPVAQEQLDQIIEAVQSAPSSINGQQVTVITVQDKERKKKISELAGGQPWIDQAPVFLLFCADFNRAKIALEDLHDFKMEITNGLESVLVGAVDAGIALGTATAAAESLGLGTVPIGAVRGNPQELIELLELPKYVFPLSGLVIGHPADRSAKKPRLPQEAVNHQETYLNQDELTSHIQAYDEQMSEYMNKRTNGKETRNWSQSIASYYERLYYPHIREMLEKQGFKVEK
The description is as above. Particulars: compound 500 μM, NADPH 200 μM, 10 mM Tris-Cl pH 7.0; μmol NADPH consumed per mg enzyme per minute. It counts as biochemical. How it is done: as §2, §3

The subject of series [3] is bacterial nitroreductase over-expressing E. coli strains. Kind of series: IC50 (turbidity) in selected NTR over-expressing library strains. It counts as cell-based, Escherichia coli. Particulars: 4 h post-challenge, serial dilution. How it is done:
FIG. 2.3 illustrates the IC50 of compound 67 for selected NTR library strains (i.e. the concentration of compound 67 that yielded only 50% turbidity relative to an unchallenged control 4 h post-challenge, in replicate cultures across a serial dilution of compound 67). The strains selected were all those observed to have SOS activity above the empty plasmid control (“Empty”) in response to challenge with compound 67 as illustrated in FIG. 2(B), plus NfsB (E.c) as a negative control. For the IC50 assays, 100 μl of overnight cultures were used to inoculate 2 ml M63 minimal medium supplemented with 100 μg·ml^−1 ampicillin and 50 μM IPTG and incubated at 30° C., 200 rpm for 3.5 h. 40 μL aliquots from each culture were then added to individual wells of a sterile 384 well plate, each already containing 40 μl of ampicillin and IPTG-supplemented M63 medium and a dilution series of compound 67 as indicated on the X-axis of panel A. A. Raw growth curves. Each NTR over-expression strain was tested at least in duplicate (independent replicates), with the exception of NfsB (E.c), which was only measured once. Culture turbidity was monitored by optical density at 600 nm 4 h post-challenge. B. IC50 values calculated by comparison of the challenged cells with the unchallenged control for each strain, after subtracting the initial absorbance values (t=0 h), using SigmaPlot 10.0 (Systat Software Inc., Richmond, Calif.). Errors are 1 standard error of the mean (SEM).
FIG. 2.4 illustrates the IC50 of compound 93 for selected NTR library strains. […] B. IC50 values calculated by comparison of the challenged cells with the unchallenged control for each strain, after subtracting the initial absorbance values (t=0 h), using SigmaPlot 10.0 (Systat Software Inc., Richmond, Calif.). […]
FIG. 2.5 illustrates the IC50 of compound 97 for selected NTR library strains. […] B. IC50 values calculated by comparison of the challenged cells with the unchallenged control for each strain, after subtracting the initial absorbance values (t=0 h), using SigmaPlot 10.0 (Systat Software Inc., Richmond, Calif.). […]

The test system of series [4] is NTR over-expressing E. coli SOS-R2. Kind of series: Growth Inhibition assay in 58-membered NTR over-expression library. Format: cell-based, Escherichia coli. The following applies: 4 h incubation.
Series [5] concerns HCT-116 cells stably over-expressing cytochrome P450 reductase (CYPOR). Kind of series: Flow cytometry of metabolism and binding (EF5 antibody). Format: cell-based, human. The following applies: 2 h. How it is done: FIG. 4 illustrates the results of a second independent flow cytometry analysis of compound 15 and 93 metabolism and binding in wild-type HCT-116 cells, HCT-116 cells stably over-expressing cytochrome P450 reductase (CYPOR), a human one-electron reductase known to metabolise nitroheterocyclic and nitroaromatic compounds, or HCT-116 cells stably expressing the bacterial nitroreductase E. coli NfsA. 1×10^6HCT-116 cells were seeded in 6 well plates underaerobic conditions (21% O2, 5% CO2). After 2 h incubation, drug free control (wild-type HCT-116, foreground), 20 μM (wild-type HCT-116, second plot), 100 μM (wild-type HCT-116, third plot), 20 μM (HCT-116-CYPOR, forth plot), 100 μM (HCT-116-CYPOR, fifth plot) or 20 μM (HCT-116-NfsA, sixth plot) of compound 15 or 93 was added. After 2 h incubation cells were harvested and fixed with paraformaldehyde before being incubated overnight with 100 μl of 75 μg/ml EF5 CY5 conjugated antibody. Samples were then analysed on a Becton Dickinson FACscan flow cytometer.
FIG. 5 illustrates the results of flow cytometry analysis of HCT-116 cells stably over-expressing cytochrome P450 reductase (CYPOR), a human one-electron reductase known to metabolise nitroheterocyclic and nitroaromatic compounds. 1×10^6HCT-116-CYPOR cells were seeded in 6 well plates in aerobic, anoxic and 0.2% oxygen conditions designed to replicate the lower limit of pathological hypoxia observed in human tumours. After 2 h incubation, drug free control (foreground), 20 μM (middle) or 100 μM (background) of compound 15 or 67 was added. After 2 h incubation cells were harvested and fixed with paraformaldehyde before being incubated overnight with 100 μl of 75 μg/ml EF5 CY5 conjugated antibody. Samples were then analysed on a Becton Dickinson FAC scan flow cytometer.
FIG. 6 illustrates the results of flow cytometry analysis of compound 15 and 93 metabolism and binding in wild-type HCT-116 cells and HCT-116 cells stably over-expressing cytochrome P450 reductase (CYPOR), a human one-electron reductase known to metabolise nitroheterocyclic and nitroaromatic compounds. 1×10^6 HCT-116 cells were seeded in 6 well plates underanoxic conditions. After 2 h incubation, drug free control (wild-type HCT-116, foreground), 20 μM (wild-type HCT-116, second plot), 100 μM (wild-type HCT-116, third plot), 20 μM (HCT-116-CYPOR, forth plot) or 100 μM (HCT-116-CYPOR, fifth plot) of compound 15 or 93 was added. After 2 h incubation cells were harvested and fixed with paraformaldehyde before being incubated overnight with 100 μl of 75 μg/ml EF5 CY5 conjugated antibody. Samples were then analysed on a Becton Dickinson FACscan flow cytometer.
For orientation: In flow cytometry, cells or beads pass a laser one at a time.

The conditions of series [6]: cited from earlier work.
For series [7], the system named is nfsA expressing HCT116 cells. The following applies: 0.7 mM-hr cold EF5; cited from earlier work.
Series [8] has as its system human solid tumour xenograft NCI-H1299 (WT). Kind of series: Hypoxia-dependent binding by ex vivo flow cytometry with pimonidazole co-staining. Particulars: 60 mg/kg i.p.; tumours excised after 120 minutes, single cell suspension. It counts as in vivo, NIH-III nude mice. How it is done: FIG. 11 illustrates the absence of hypoxic-dependent binding of compound 67 and compound 93 by flow cytometry in the human solid tumour xenograft NCI-H1299, with reference to hypoxia staining by compound 15 and pimonidazole (Hypoxyprobe™) as internal standards (positive controls). NCI-H1299 WT tumours were inoculated subcutaneously onto the flank of NIH-III nude mice. When the mixed tumours reached approximately 800 mm^3, mice were dosed i.p. with 60 mg/kg of pimonidazole, and 60 minutes later dosed with either 60 mg/kg of compound 15, or 60 mg/kg of compound 67, or 60 mg/kg of compound 93. After 120 minutes the tumours were excised and enzyme digested to form a single cell suspension before fixation in ice cold 80% ethanol. Single cell immunodetection of bound adducts of compounds was performed using a monoclonal antibody (Mab1, hybridoma clone 4.3.11.3) conjugated to Alexa-488 (Ex/Em 499/519; green) for the detection of pimonidazole adducts, and monoclonal antibody ELK3-51 directly conjugated to the fluorophore CY5 (Ex/Em 650/670 nm; red) for detection of adducts formed by compound 15 or compound 67 or compound 93. The ex-vivo tumour cell samples were analysed on a Becton Dickinson FACscan flow cytometer using FACS Diva software. Integrated fluorescence measurements were recorded for 10,000 single non-debris events. Fluorescence emission was monitored at 530 nm±20 and 670-700 nm for detection of Alexa-488 and CY5 conjugated monoclonal antibodies, respectively.

Molecules are shown by their SMILES.

T3 sequence (P38489 whole entry): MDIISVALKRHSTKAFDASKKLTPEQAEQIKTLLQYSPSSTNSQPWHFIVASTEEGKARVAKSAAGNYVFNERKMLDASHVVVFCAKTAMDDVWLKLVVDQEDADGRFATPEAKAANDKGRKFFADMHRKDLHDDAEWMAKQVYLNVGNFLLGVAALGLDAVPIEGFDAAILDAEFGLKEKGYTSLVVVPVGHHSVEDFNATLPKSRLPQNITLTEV

Regarding `O=[N+]([O-])c1nccn1Cc1cn(C(CO)CF)nn1` (stereo not drawn) [Compound 19, reference compound], the values for the IC50 in series [1] and in series [2] were 16 µM and more than 12500 µM, respectively. Besides, in series [1], the “WT:NfsA” value was more than 781.
For `O=[N+]([O-])c1cn(Cc2cn(C(CO)CF)nn2)cn1` (stereo not drawn) [Compound 97, 3-fluoro-2-(4-((4-nitro-1H-imidazol-1-yl)methyl)-1H-1,2,3-triazol-1-yl)propan-1-ol], the melting point fell in the range of 126 to 129 °C. Besides, on NfsA (E.c), the “Rate of metabolism by NfsA (E.c)” value came to 4.3 µmol/min/mg. Also, at NfrA (B.s), the “Rate of metabolism by NfrA (B.s)” value is 3.9 µmol/min/mg. Further, the “Rate of metabolism by NfsB (E.c)” value at NfsB (E.c) stood at 1.4 µmol/min/mg. Further, at YcnD (B.s), the “Rate of metabolism by YcnD (B.s)” value is 6.2 µmol/min/mg. In [1], the IC50 worked out at 178 µM and the “WT:NfsA” value is more than 70. Further, the IC50 in [2] is more than 12500 µM. Also, the “Inhibition of bacterial cell growth in NTR over-expressing strains compared to controls” value in series [3] is “Inhibition of bacterial cell growth was selectively observed”. In series [4] (400 μM compound 67, 130 μM compound 93, 800 μM compound 97), the “Reductive metabolism at the nitro moiety by NTR library members (NfsA and NfsB families)” value is “reductively metabolised at the nitro moiety by the majority of the NfsA and NfsB families tested”. The “Metabolism by members of the NemA nitroreductase family” value in series [4] (800 μM compound 97) is reported as “Modest metabolism”.
Regarding `O=C(Cn1ccnc1[N+](=O)[O-])NCC(F)(F)C(F)(F)F` [Compound 15, 2-(2-nitro-1H-imidazol-1-yl)-N-(2,2,3,3,3-pentafluoropropyl)acetamide], the “Metabolism and binding by FACS, HCT-116-CYPOR cells (FIG. 4)” value in series [5] (20 μM and 100 μM, aerobic conditions) was “minimal metabolism and binding”. In [5] (20 μM and 100 μM, anoxic conditions), the “Metabolism and binding by FACS, HCT-116-CYPOR cells, anoxia (FIG. 6)” value was “significant dose-dependent and reductase dependent increases in metabolism and binding”. For the same compound, the “Metabolism and binding by FACS, HCT-116-CYPOR cells, 0.2% oxygen (FIG. 5)” value in series [5] (20 μM or 100 μM, 0.2% oxygen) is listed as “Significant dose-dependent increases in metabolism”. Further, the “Metabolism and binding by FACS, HCT-116-CYPOR cells, aerobic (FIG. 5)” value in series [5] (20 μM or 100 μM, aerobic) was “negligible metabolism and binding”. In addition, the “Metabolism and binding by FACS, HCT-116-CYPOR cells, anoxia (FIG. 5)” value in [5] (20 μM or 100 μM, anoxia) is reported as “Significant dose-dependent increases in metabolism”. Further, the IC50 in series [1] is 1 µM; in series [2], 2270 µM. The “WT:NfsA” value in series [1] turned out to be 2270. Moreover, the “Concentration-time achieved in human plasma” value in series [6] (cold EF5 9 mg/kg) is 0.89 mM-hr. Also, the “Plasma AUC” value in series [6] (dose of 21 mg/kg injected) is given as 2 mM-hr. Besides, the “Tolerability of injected dose” value in series [6] (dose of 21 mg/kg) was “safely injected without any toxicities”. Also, in series [7], the “Loss of viability for nfsA expressing HCT116 cells” value is given as 90%.
`O=[N+]([O-])c1nccn1CC(O)CN1CCCCC1` (stereo not drawn) [pimonidazole, reference compound]: the “Hypoxia-dependent binding in NCI-H1299 WT tumours, flow cytometry (FIG. 11)” value in series [8] is “hypoxic cells that are detected by pimonidazole adduct retention”.

One may read the IC50 as the concentration at which inhibition is half-maximal. A word on the melting point: it is the temperature, or range, at which the solid turns liquid.
